The numbers were not newly measured in US7829717B2, “(Arylamidoaryl)squaramide compounds” (OSI Pharmaceuticals, Inc., priority 2004, dated 2010), which cites them from elsewhere.

SMILES strings stand for the structures. Where a name gives a salt, the structure may show the parent alone.

For this data set, the system named is MO7e human leukemia cells.

As for `Cc1ccc(NC(=O)c2ccc(CN3CCN(C)CC3)cc2)cc1Nc1nccc(-c2cccnc2)n1` [Gleevec, imatinib mesylate], the “GM-CSF stimulated growth of MO7e human leukemia cells” value (GM-CSF stimulated) was “not affected”. The “Kit ligand-stimulated growth of MO7e human leukemia cells” value (Kit ligand-stimulated) was “inhibited”.
